Data: BindingDB's records for doi:10.1021/acs.jmedchem.5b00984 (Astrazeneca, 2015)

Biological target: T1, Progesterone receptor (Homo sapiens, UniProt P06401)
T1 sequence (P06401 whole entry): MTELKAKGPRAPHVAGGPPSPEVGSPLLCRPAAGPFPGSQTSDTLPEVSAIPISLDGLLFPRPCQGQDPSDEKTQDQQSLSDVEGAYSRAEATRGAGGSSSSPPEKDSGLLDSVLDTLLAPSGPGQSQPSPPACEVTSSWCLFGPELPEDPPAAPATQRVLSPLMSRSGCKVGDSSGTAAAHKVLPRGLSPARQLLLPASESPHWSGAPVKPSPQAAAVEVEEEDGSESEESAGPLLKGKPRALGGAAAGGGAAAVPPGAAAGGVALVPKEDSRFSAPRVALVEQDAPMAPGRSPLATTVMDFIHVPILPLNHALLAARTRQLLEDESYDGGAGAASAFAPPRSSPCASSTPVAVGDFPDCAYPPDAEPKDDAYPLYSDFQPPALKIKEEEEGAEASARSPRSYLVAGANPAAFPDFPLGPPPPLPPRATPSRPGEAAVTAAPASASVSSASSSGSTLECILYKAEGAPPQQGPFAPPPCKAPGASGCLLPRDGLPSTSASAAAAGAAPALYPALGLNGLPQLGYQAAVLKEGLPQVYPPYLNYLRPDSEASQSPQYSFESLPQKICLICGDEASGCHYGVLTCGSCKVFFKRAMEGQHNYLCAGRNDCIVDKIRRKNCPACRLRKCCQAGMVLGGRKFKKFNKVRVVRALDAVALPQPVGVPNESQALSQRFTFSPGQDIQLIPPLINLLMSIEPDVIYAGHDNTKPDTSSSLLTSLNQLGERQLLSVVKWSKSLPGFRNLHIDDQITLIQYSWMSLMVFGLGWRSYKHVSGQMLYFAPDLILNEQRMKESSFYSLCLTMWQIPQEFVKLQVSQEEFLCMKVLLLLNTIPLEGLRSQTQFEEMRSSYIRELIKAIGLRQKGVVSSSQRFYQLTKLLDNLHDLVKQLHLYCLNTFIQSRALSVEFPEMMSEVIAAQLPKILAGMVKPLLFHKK
Experiment: Antagonist activity at progesterone receptor in human MCF cells assessed as estradiol-induced receptor response

| IC50 | SMILES |
| --- | --- |
| 2.09 µM | C[C@@H]1Cc2c([nH]c3ccccc23)[C@@H](c2ccc(Cl)cc2)N1C[C@H](C)C(=O)O |
| 0.000832 µM | CC(C)CN1[C@H](c2c(F)cc(/C=C/C(=O)O)cc2F)c2[nH]c3ccccc3c2C[C@H]1C |
| 0.724 µM | C[C@@H]1Cc2c([nH]c3ccccc23)[C@@H](c2ccc(Cl)cc2)N1CCO |
| 0.0036 µM | CC(C)CN1[C@H](c2ccc(/C=C/C(=O)O)cc2)c2[nH]c3ccccc3c2C[C@H]1C |
| 1.51 µM | C[C@@H]1Cc2c([nH]c3ccccc23)[C@@H](c2ccc(Cl)cc2)N1CCC(=O)O |
| 0.012 µM | CC/C(=C(\c1ccc(O)cc1)c1ccc(/C=C/C(=O)O)cc1)c1ccccc1 [GW7604] |
| 2.29 µM | C[C@@H]1Cc2c([nH]c3ccccc23)[C@@H](c2ccc(/C=C/C(=O)O)cc2)N1CCO |
| 2.69 µM | OCCN1CCc2c([nH]c3ccccc23)C1c1ccc(Cl)cc1 (centres undefined) |
| 0.0035 µM | C[C@@H]1Cc2c([nH]c3ccccc23)[C@@H](c2ccc(/C=C/C(=O)O)cc2)N1CC(C)(C)F |
| 0.05 µM | C[C@@H](CO)CN1[C@H](c2ccc(/C=C/C(=O)O)cc2)c2[nH]c3ccccc3c2C[C@H]1C |
| 0.912 µM | C[C@@H]1Cc2c([nH]c3ccc(O)cc23)[C@@H](c2ccc(Cl)cc2)N1CCO |
| 3.98 µM | CC/C(=C(\c1ccccc1)c1ccc(/C=C/C(=O)O)cc1)c1ccccc1 [(E)-3-[4-((Z)-1,2-Diphenyl-but-1-enyl)-phenyl]-acrylic acid] |

| SMILES | IC50 |
| --- | --- |
| C[C@]12CC[C@@H]3c4ccc(O)cc4C[C@@H](CCCCCCCCC[S+]([O-])CCCC(F)(F)C(F)(F)F)[C@H]3[C@@H]1CC[C@@H]2O (some centres undefined) | 0.000209 µM |
| CC/C(=C(\c1ccc(O)cc1)c1ccc(OCCN(C)C)cc1)c1ccccc1 [[3H]4-OHT] | 0.000794 µM |
